From article PMC2195886 (The Journal of Experimental Medicine, 2001)
Entries after “also recorded” stand apart in the source; their conditions may differ. Where two headings read alike, the source gives them in different places. Peptide text beside a SMILES is read from it.

Experiments:
20S proteasomes = assay: 1 μg of purified proteasome; settings: human, 37°C, up to 24 h
HLA-A*0201 [1] = molecular target: T1, HLA-A*0201 (Homo sapiens, UniProt P04439, D140Y/D185E/D98H/E176V/E277Q/G131W/G231S/I119V/I121R/I166T/I218V/L300P/L318F/N151K/N90K/P208A/P217A/Q86G/Q94H/R138H/R169H/T345S)
HLA-A*0201 [2] = molecular target: T1, HLA-A*0201; assay: cell-based; assay type: binding

Compound	cleaved bond (20S proteasomes)	not cleaved (20S proteasomes)	also measured
DEALAIAALELLPRELFPPLFMAAFDG	Leu45-E46, major, 1 h; also recorded: Met58-Ala59, minor, 1 h; also recorded: Ala59-A60, minor, 1 h	–	–
PTLAKFSPYLGQMINLRRLLLSHIHAS	L267-S268, minor, 1 h	–	–
VMLTDVSPEPLQALLERASATLQDLVF	–	not COOH-terminally excised	–
GNSISISALQSLLQHLIGLSNLTHVLY	L423-Q424, major, 1 h; also recorded: L433-S434, major, 1 h	not COOH-terminally excised	–
QSLLQHLIGLSNLTHVLYPVPLESYED	–	not COOH-terminally excised	–
WTVWSGNRASLYSFPEPEAAQPMTKKR	Ala141-S142, major, 1 h; also recorded: Ala151-A152, major, 1 h	–	–
IPVEVLVDLFLKEGACDELFSYLIEKV	–	not COOH-terminally excised	–
SQFLSLQCLQALYVDSLFFLRGRLDQL	Val303-Asp304, minor, 1 h; also recorded: Asp304-S305, minor, 1 h; also recorded: Leu306-F307, major, 1 h; also recorded: Leu309-R310, major, 1 h	not COOH-terminally generated	–
CC[C@H](C)[C@H](NC(=O)[C@H](CCCCN)NC(=O)[C@H](CC(C)C)NC(=O)[C@H](CCCCN)NC(=O)[C@H](CCCCN)NC(=O)[C@H](CS)NC(=O)[C@H](CS)NC(=O)[C@H](CC(C)C)NC(=O)[C@@H](N)CCCNC(=N)N)C(=O)O (H-RLCCKKLKI-OH)	–	–	IC50 (HLA-A*0201 [2]): 20.8 µM
PLETLSITNCRLSEGDVMHLSQSPSVS	L342-S343, minor, 1 h	–	–
LAYLHARLRELLCELGRPSMVWLSANP	L470-L471, minor, 1 h	–	–
QHLHLETFKAVLDGLDVLLAQEVRPRR	Phe97-Lys98, major, 1 h; also recorded: Leu108-A109, major, 1 h	only Leu-108 was generated	–
FLPSDYFPSV [HBV control, reference compound]	–	–	Stability DT50 (HLA-A*0201 [1]): >4 h
